From the supplement of paper PMC10307832

Tests used:
Experiment in all cases: relative viability (nuclei count vs DMSO), 5 days (fraction); higher = more cells survive
[1] = compound: C[C@@]1(C(=O)Nc2ccc(F)nc2)CCCN1c1nc(Nc2cc(C3CC3)n[nH]2)c2cccn2n1 + O=C(c1cc(Cc2n[nH]c(=O)c3ccccc23)ccc1F)N1CCN(C(=O)C2CC2)CC1 [Olaparib] (partner 8 µM)
How it was run: (§1)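 Relative viability equals treated-well nuclei counts divided by vehicle-well nuclei counts. Counts came from 4× images of lung cancer cell lines grown in 1536-well plates for 5 days after pin-tool dosing on the day after seeding. Dosing used one drug alone or a fixed anchor-drug dose plus five library-drug doses (not always all listed) in √10 steps, and values are medians of duplicate plates.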

[2] = compound: CC1(C)CNc2cc(NC(=O)c3cccnc3NCc3ccncc3)ccc21 [Motesanib] + CS(=O)(=O)CCNCc1ccc(-c2ccc3ncnc(Nc4ccc(OCc5cccc(F)c5)c(Cl)c4)c3c2)o1 [Lapatinib] (partner 2 µM)
How it was run: as §1

[3] = compound: C[C@@]1(C(=O)Nc2ccc(F)nc2)CCCN1c1nc(Nc2cc(C3CC3)n[nH]2)c2cccn2n1 + Cc1cc(Nc2cc(N3CCN(C)CC3)nc(Sc3ccc(NC(=O)C4CC4)cc3)n2)n[nH]1 [Tozasertib] (partner 0.1 µM)
How it was run: as §1

[4] = compound: C[C@@]1(C(=O)Nc2ccc(F)nc2)CCCN1c1nc(Nc2cc(C3CC3)n[nH]2)c2cccn2n1 + Cc1nc(NC(=O)N2CCC[C@H]2C(N)=O)sc1-c1ccnc(C(C)(C)C(F)(F)F)c1 [Alpelisib] (partner 2 µM)
How it was run: as §1

Row | Cell Line | relative viability ([1]; first compound 0.04 µM) | relative viability ([1]; first compound 0.1265 µM) | relative viability ([1]; first compound 0.4 µM) | relative viability ([1]; first compound 1.265 µM) | relative viability ([2]; first compound 0.01 µM) | relative viability ([2]; first compound 0.03162 µM) | relative viability ([2]; first compound 0.1 µM) | relative viability ([2]; first compound 0.3162 µM) | relative viability ([2]; first compound 1 µM) | relative viability ([3]; first compound 0.04 µM) | relative viability ([3]; first compound 0.1265 µM) | relative viability ([3]; first compound 0.4 µM) | relative viability ([3]; first compound 1.265 µM) | relative viability ([4]; first compound 0.04 µM) | relative viability ([4]; first compound 0.1265 µM) | relative viability ([4]; first compound 0.4 µM) | relative viability ([4]; first compound 1.265 µM)
1 | NCI-H1355 | 0.661 | 0.59 | 0.561 | 0.572 | 1.07 | 1.01 | 1.04 | 1.09 | 0.962 | 0.551 | 0.438 | 0.323 | 0.526 | 0.816 | 0.758 | 0.613 | 0.868
2 | NCI-H1395 | 0.505 | 0.437 | 0.408 | 0.497 | 0.925 | 1.03 | 1.04 | 1.08 | 0.959 | 0.783 | 0.741 | 0.74 | 0.61 | 0.988 | 0.719 | 1.15 | 1.1
3 | NCI-H1437 | 0.666 | 0.631 | 0.576 | 0.59 | 0.719 | 0.78 | 0.756 | 0.9 | 0.781 | 0.382 | 0.309 | 0.221 | 0.238 | 0.722 | 0.561 | 0.581 | 0.717
4 | NCI-H1651 | 0.2 | 0.183 | 0.196 | 0.201 | 0.704 | 0.706 | 0.699 | 0.921 | 0.786 | 0.639 | 0.633 | 0.449 | 0.537 | 0.86 | 0.785 | 0.779 | 0.904
5 | NCI-H1666 | 0.707 | 0.73 | 0.713 | 0.724 | 0.882 | 0.709 | 0.691 | 0.69 | 0.667 | 0.623 | 0.558 | 0.465 | 0.415 | 0.825 | 0.798 | 0.742 | 0.585
6 | NCI-H1734 | 0.506 | 0.405 | 0.385 | 0.436 | 0.99 | 1.14 | 1.03 | 1.14 | 0.99 | 0.234 | 0.246 | 0.26 | 0.242 | 0.571 | 0.509 | 0.476 | 0.605
7 | NCI-H1755 | 0.93 | 0.73 | 0.759 | 0.851 | 1.02 | 1.05 | 1.08 | 1.28 | 0.997 | 0.558 | 0.528 | 0.472 | 0.545 | 0.91 | 0.746 | 0.806 | 0.999
8 | NCI-H1793 | 0.751 | 0.668 | 0.475 | 0.772 | 0.858 | 0.636 | 0.64 | 0.701 | 0.773 | 0.631 | 0.283 | – | 0.789 | 0.731 | 0.625 | 0.553 | 0.731
9 | NCI-H1915 | 0.266 | 0.257 | 0.242 | 0.257 | 0.99 | 0.929 | 0.866 | 0.939 | 1.01 | 0.473 | 0.418 | 0.407 | 0.415 | 1.09 | 1.08 | 1.04 | 1.06
